This is an account of results in patent US5460801A, “Inhibition of small cell lung cancer cell growth in vivo using monoclonal antibody” (The United States of America as represented by the …, priority 1993, dated 1995).

Where “and” joins values, the source holds several entries; their conditions need not be identical. Equal values may be shown once. Square brackets hold non-standard residues; d marks the D form. Ends that are not written are not given here. Peptide text beside a SMILES is read from it. pGlu = O=C1CC[C@@H](C(=O)O)N1

One assay relates to monoclonal antibody 2A11. Put plainly: Indirect radioimmunoassay: 2A11 cross reactivity with solid phase synthetic peptides. Type of assay: binding, mouse. As to conditions: for % 125I-PROTEIN A BOUND (% cross reactivity with 2A11): cpm minus BSA background relative to bombesin; for % 125I-PROTEIN A BOUND (% cross reactivity with 2A11) / CPM 125I-PROTEIN A BOUND: peptides solid phased at 500 ng/well; for CPM 125I-PROTEIN A BOUND: 2A11 10 μg/ml, detection with rabbit anti mouse IgG and 125I-protein A; for 2A11 binding to the solid phase peptide (in words): indirect RIA / titration of 2A11. On the procedure: Peptides (all purchased from Peninsula Laboratories) were adsorbed to 96 well polyvinyl chloride microtiter plates (Dynatech) by adding 0.05 ml of a 10 μg/ml peptide in phosphate buffered saline (PBS) for 1 hr., washing in PBS, then blocking with a 1% bovine serum albumin (BSA) PBS solution. Purified 2A11 from ascites fluid (10 μg/ml) was added, incubated, washed three times, then protein A affinity purified rabbit anti-mouse IgG (Cappel Laboratories) 1.6 μg/ml) was added, incubated, washed three times, then ^125 I-protein A (Pharmacia, labeled by chloramine T method to 40-50 μCi/μg) 40,000 cpm/well was added, incubated, washed 8× and then the wells cut out and counted in a Beckman gamma counter. All incubations were for 1 hr. at room temperature in PBS with 1% BSA in 0.025 ml volumes.
Percent cross reactivity was determined as follows:
% cross reactivity--cpm^125 I-protein A bound on peptide target minus cpm bound on BSA target divided by crop bound by bombesin minus BSA background times 100. Typically, the bombesin target caused 2A11 binding sufficient to bind about 32,776 cpm of ^125 I-protein A while the BSA background bound about 30 cpm.

The subject of a further assay is solid phase 2A11. Put plainly: Quantitative inhibition assay: peptide inhibition of 125I-Tyr4-BN binding to solid phase 2A11. More on the design: species or system mouse. As to conditions: for PERCENT INHIBITION of 125I-Tyr4-BN binding to solid phase 2A11: peptides at 1 nM, mean ± SD of 3 determinations. On the procedure:
Antibodies 2A11 or MOPC 21 were adsorbed to 96 well polyvinylchloride plates at 500 ng/well followed by saturation with 1% BSA-PBS. Unlabeled bombesin was added to triplicate wells covering a range from 1-1,000 pg and incubated for 1 hr. at room temperature. Without removing the unlabeled bombesin samples, about 12,000 cpm of ^125 I-Tyr^4 -bombesin was added to each well and incubated overnight at 4° C., washed 8× and counted. All additions were in 1% BSA-PBS in a 25 μl volume, and the washes were with 1% BSA-PBS 0.2 ml/well.

The next assay has as its system NCI-N592. Put plainly: Agarose clonogenic assay in serum-free HITES medium, NCI-N592. The note with it: 50 nM exogenous BN; SCLC lines NCI-N417D and NCI-N592. Type of assay: cell-based, human. The protocol: Because of its poor colony forming efficiency in serum-free medium, NCI-N417 culture plates were supplemented with 0.1% BSA to enhance cell growth, NCI-N592 cells were seeded at 5×10^4 per plate while NCI-N417 cells were plated at 1×10^4. Plates were pre-screened to verify single cell distribution of test cells and assessed 21 days later for colony formation. Cell aggregates of greater than 50 cells were scored positive as definitive colony growth.

Assay [1] concerns 2A11 staining of BLP in paraffin embedded tissue. Put plainly: Immunohistochemical staining with 2A11: pre-absorption specificity test. The note with it: peptide 100 μg/ml; 2A11 at 10 μg/ml. The text has this:
Antibody 2A11 was also used for immunohistochemical localization of BLP in paraffin embedded tissue. Using rabbit antisera it has been reported that chick proventriculus and human fetal bronchioles are rich in BN-like immunoreactivity. Use was, therefore, made of immunohistochemical staining technique of Hsu, et al. J. Histochem. Cytochem. 29, 557-5--1981, in combination with 2A11 for the light microscopic detection of BLP. Bombesinergic cells were found in chick proventriculus, human fetal bronchioles and a human SCLC. Immune staining was performed using 2A11 at 10 μg/ml.

For `CC[C@H](C)[C@H](NC(=O)[C@H](Cc1ccccc1)NC(=O)[C@H](C)NC(=O)[C@H](CC(=O)O)NC(=O)[C@H](CCCCN)NC(=O)[C@H](CO)NC(=O)[C@@H]1CCCN1C(=O)[C@@H]1CCC(=O)N1)C(=O)NCC(=O)N[C@@H](CC(C)C)C(=O)N[C@@H](CCSC)C(N)=O` [ELEDOISIN, eledoisin] ([pGlu]PSKDAFIGLM-NH2), the “% 125I-PROTEIN A BOUND (% cross reactivity with 2A11)” value (shortened to “% 125I-PROTEIN A BOUND”) in the assay on monoclonal antibody 2A11 is listed as under 0.02%; with monoclonal antibody 2A11 (listed as eledoisin) it was “less than 0.3%”. The “CPM 125I-PROTEIN A BOUND” value with monoclonal antibody 2A11 amounted to 24 CPM.

Consider “GRP^14-27: fragment 14-27 of gastrin releasing peptide (MYPRGNHWAVGHLM; ends and bridges not checked; UniProt P07492 37-50, looked up, fragment)”, for which, in the assay with monoclonal antibody 2A11, the “% 125I-PROTEIN A BOUND” value was 102% and the “CPM 125I-PROTEIN A BOUND” value is 33,379 CPM. In addition, in the assay on solid phase 2A11, the “PERCENT INHIBITION of 125I-Tyr4-BN binding to solid phase 2A11” value (from here on “PERCENT INHIBITION”) worked out at 104.3 ± 7.7%.

On to Alytesin, for which the “PERCENT INHIBITION” value with solid phase 2A11 is given as 99.0 ± 5.1%.

Consider `CSCC[C@H](NC(=O)[C@H](Cc1ccccc1)NC(=O)[C@H](Cc1c[nH]cn1)NC(=O)CNC(=O)[C@@H](NC(=O)[C@H](C)NC(=O)[C@H](Cc1c[nH]c2ccccc12)NC(=O)[C@H](CCC(N)=O)NC(=O)[C@@H]1CCC(=O)N1)C(C)C)C(N)=O` [Litorin], for which the “PERCENT INHIBITION” value in the assay with solid phase 2A11 is 56.5 ± 6.2%.

Consider KASSININ, for which, in the assay with monoclonal antibody 2A11, the “% 125I-PROTEIN A BOUND” value is on record as under 0.02% and the “CPM 125I-PROTEIN A BOUND” value is listed as 37 CPM. Moreover, the “% 125I-PROTEIN A BOUND” value with monoclonal antibody 2A11 (listed as kassinin) was “less than 0.3%”.

For the molecule `CSCC[C@H](NC(=O)[C@H](Cc1ccccc1)NC(=O)[C@H](Cc1c[nH]cn1)NC(=O)CNC(=O)[C@@H](NC(=O)[C@H](C)NC(=O)[C@H](Cc1c[nH]c2ccccc12)NC(=O)[C@H](CCC(N)=O)NC(=O)[C@@H]1CCCN1C(=O)[C@@H](NC(=O)[C@@H]1CCC(=O)N1)C(C)C)C(C)C)C(N)=O` [Ranatensin] ([pGlu]VPQWAVGHFM-NH2), the “PERCENT INHIBITION” value in the assay on solid phase 2A11 was determined as 54.0 ± 8.4%.

Consider “GRP^20-27: C-terminal octapeptide fragment 20-27 of gastrin releasing peptide”, for which the “PERCENT INHIBITION” value in the assay with solid phase 2A11 (0.001 µM) is 98.5 ± 2.4% and 98.5%.

Regarding bombesin, in the assay on monoclonal antibody 2A11, the “% 125I-PROTEIN A BOUND” value was 100% and the “2A11 binding to the solid phase peptide (in words)” value is “maximal binding”. The “CPM 125I-PROTEIN A BOUND” value with monoclonal antibody 2A11 (listed as BOMBESIN) is reported as 32,776 CPM. Besides, the “CPM 125I-PROTEIN A BOUND” value in the assay on monoclonal antibody 2A11 (listed as bombesin) is “about 32,776 CPM”. Also, the “PERCENT INHIBITION” value with solid phase 2A11 was determined as 100.0 ± 4.7%. Moreover, the “effect of exogenous BN on 2A11 growth inhibition (in words)” value in the assay on NCI-N592 is listed as “nullification of the 2A11 effect”. In assay [1], the “effect of pre-absorption of the antibody solution on 2A11 staining (in words)” value is listed as “staining inhibited”.

On to PHYSALAEMIN, for which, in the assay with monoclonal antibody 2A11, the “% 125I-PROTEIN A BOUND” value is given as under 0.02% and the “CPM 125I-PROTEIN A BOUND” value is 28 CPM. For the same molecule, the “% 125I-PROTEIN A BOUND” value in the assay with monoclonal antibody 2A11 (listed as physalaemin) is on record as “less than 0.3%”.

On to neurotensin, for which the “effect of pre-absorption of the antibody solution on 2A11 staining (in words)” value in assay [1] was “no inhibition of staining”.

Take `CSCC[C@H](NC(=O)[C@H](CC(C)C)NC(=O)CNC(=O)[C@H](Cc1ccccc1)NC(=O)[C@H](Cc1ccccc1)NC(=O)[C@H](CCC(N)=O)NC(=O)[C@H](CCC(N)=O)NC(=O)[C@@H]1CCCN1C(=O)[C@H](CCCCN)NC(=O)[C@@H]1CCCN1C(=O)[C@@H](N)CCCNC(=N)N)C(N)=O` [SUBSTANCE P, substance P]: in the assay on monoclonal antibody 2A11, the “% 125I-PROTEIN A BOUND” value is listed as under 0.02%, the “2A11 binding to the solid phase peptide (in words)” value is “insignificant 2A11 binding” and the “CPM 125I-PROTEIN A BOUND” value came out at 31 CPM. In the assay with monoclonal antibody 2A11 (listed as substance P), the “% 125I-PROTEIN A BOUND” value is listed as “less than 0.3%”. Further, in the assay with solid phase 2A11 (same concentration range as BN standard curve), the “inhibition of 125I-Tyr4-BN/2A11 binding (in words)” value is reported as “incapable of inhibiting”.

As for “gastrin-releasing peptide [GASTRIN RELEASING PEPTIDE (GRP)]”, in the assay on monoclonal antibody 2A11, the “% 125I-PROTEIN A BOUND” value is 102%, the “2A11 binding to the solid phase peptide (in words)” value is listed as “maximal binding” and the “CPM 125I-PROTEIN A BOUND” value was 33,405 CPM. The “PERCENT INHIBITION” value in the assay with solid phase 2A11 stood at 101.0 ± 3.4%.
